Results reported in ChEMBL document CHEMBL3045690, “Ligand-based drug design studies using predictive pharmacophore model generation on 4H-1,2,4-triazoles as AT1 receptor antagonists” (Med Chem Res, 2012).

Molecular target: T1, Type-1 angiotensin II receptor (Oryctolagus cuniculus, UniProt P34976)
T1 sequence (P34976 whole entry): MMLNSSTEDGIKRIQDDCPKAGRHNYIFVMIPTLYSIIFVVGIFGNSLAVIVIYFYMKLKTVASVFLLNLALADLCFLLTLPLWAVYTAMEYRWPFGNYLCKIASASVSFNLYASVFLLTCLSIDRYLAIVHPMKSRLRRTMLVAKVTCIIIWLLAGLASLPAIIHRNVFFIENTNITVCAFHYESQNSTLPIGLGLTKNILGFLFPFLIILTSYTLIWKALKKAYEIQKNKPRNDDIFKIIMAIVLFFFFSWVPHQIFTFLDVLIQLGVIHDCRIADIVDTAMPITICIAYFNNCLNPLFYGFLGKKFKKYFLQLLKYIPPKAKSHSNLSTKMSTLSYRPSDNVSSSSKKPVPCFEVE
Assay: Antagonist activity at AT1 receptor in Oryctolagus cuniculus (rabbit) aorta

Structure (SMILES)	IC50 [nM]
CCCSc1nnc(Cc2ccccc2)n1Cc1ccc(NC(=O)c2ccccc2C(=O)O)cc1	320
CCCCc1nnc(Sc2ccccc2)n1Cc1ccc(NC(=O)c2ccccc2-c2nnn[nH]2)cc1	100
CCCCc1nnc(C(=O)N(C)Cc2ccccc2)n1Cc1ccc(NC(=O)c2ccccc2-c2nnn[nH]2)cc1	89
CCCCc1nnc(SCc2ccccc2Cl)n1Cc1ccc(NC(=O)c2ccccc2-c2nnn[nH]2)cc1	110
CCCCc1nnc(SC(C)(C)C)n1Cc1ccc(NC(=O)c2ccccc2C(=O)O)cc1	890
CCCCc1nnc(SCc2ccccc2C(=O)OC)n1Cc1ccc(NC(=O)c2ccccc2-c2nnn[nH]2)cc1	90
CCCCc1nnc(OCc2ccccc2)n1Cc1ccc(NC(=O)c2ccccc2-c2nnn[nH]2)cc1	370
CCCCc1nnc(SCc2ccc(C(=O)O)cc2)n1Cc1ccc(NC(=O)c2ccccc2-c2nnn[nH]2)cc1	24
CCCCc1nnc(NCc2ccc(OC)cc2)n1Cc1ccc(NC(=O)c2ccccc2-c2nnn[nH]2)cc1	780
CCCCc1nnc(SCc2ccccc2CO)n1Cc1ccc(NC(=O)c2ccccc2-c2nnn[nH]2)cc1	36
CCCCc1nnc(S(C)(=O)=O)n1Cc1ccc(NC(=O)c2ccccc2-c2nnn[nH]2)cc1	400
CCCCc1nnc(S)n1Cc1ccc(NC(=O)c2ccccc2C(=O)O)cc1	860
CCCCc1nnc(SCc2ccc([N+](=O)[O-])cc2)n1Cc1ccc(NC(=O)c2ccccc2-c2nnn[nH]2)cc1	6.6
CCCc1nnc(SCc2ccc(Cl)cc2)n1Cc1ccc(NC(=O)c2ccccc2-c2nnn[nH]2)cc1	98
CCCCc1nnc(SCc2ccccc2[N+](=O)[O-])n1Cc1ccc(NC(=O)c2ccccc2-c2nnn[nH]2)cc1	130
CCCCc1nnc(SCc2cccc(OC)c2)n1Cc1ccc(NC(=O)c2ccccc2-c2nnn[nH]2)cc1	94
CCCCc1nnc(C(=O)NCc2ccccc2)n1Cc1ccc(NC(=O)c2ccccc2-c2nnn[nH]2)cc1	57
CCCCc1nnc(SCc2ccc(C(=O)OC)cc2)n1Cc1ccc(NC(=O)c2ccccc2-c2nnn[nH]2)cc1	120

Structure (SMILES)	IC50 [nM]
CCCCc1nnc([S+]([O-])Cc2ccc(OC)cc2)n1Cc1ccc(NC(=O)c2ccccc2-c2nn[nH]n2)cc1 (stereo unspecified)	50
CCCCc1nnc(SCc2ccccc2)n1Cc1ccc(NC(=O)c2ccccc2-c2nnn[nH]2)cc1	7.1
CCCCc1nnc(S(=O)(=O)Cc2ccc(Cl)cc2)n1Cc1ccc(NC(=O)c2ccccc2-c2nnn[nH]2)cc1	48
CCCCc1nnc(SC)n1Cc1ccc(NC(=O)c2ccccc2-c2nnn[nH]2)cc1	310
CCCCc1nnc([S+]([O-])Cc2ccccc2C(=O)O)n1Cc1ccc(NC(=O)c2ccccc2-c2nnn[nH]2)cc1 (stereo unspecified)	10
CCCCc1nnc(SCc2ccccc2-c2nnn[nH]2)n1Cc1ccc(NC(=O)c2ccccc2-c2nnn[nH]2)cc1	1.4
CCCCc1nnc(C(=O)N(C)c2ccccc2)n1Cc1ccc(NC(=O)c2ccccc2-c2nnn[nH]2)cc1	350
CCCCc1nnc(SCC(C)C)n1Cc1ccc(NC(=O)c2ccccc2-c2nnn[nH]2)cc1	72
CCCCc1nnc(NCc2ccccc2)n1Cc1ccc(NC(=O)c2ccccc2-c2nnn[nH]2)cc1	28
CCCCc1nnc(SCc2ccccc2C)n1Cc1ccc(NC(=O)c2ccccc2-c2nnn[nH]2)cc1	17
CCCCc1nnc(NCc2ccc(Cl)cc2)n1Cc1ccc(NC(=O)c2ccccc2-c2nnn[nH]2)cc1	140
CCCCCc1nnc(SCc2ccc(Cl)cc2)n1Cc1ccc(NC(=O)c2ccccc2-c2nnn[nH]2)cc1	94
CCCCc1nnc([S+]([O-])Cc2ccc(Cl)cc2)n1Cc1ccc(NC(=O)c2ccccc2-c2nn[nH]n2)cc1 (stereo unspecified)	11
CCCCc1nnc([S+]([O-])Cc2ccc([N+](=O)[O-])cc2)n1Cc1ccc(NC(=O)c2ccccc2-c2nnn[nH]2)cc1 (stereo unspecified)	8.9
CCCCc1nnc(SCc2ccccc2C(=O)O)n1Cc1ccc(NC(=O)c2ccccc2-c2nnn[nH]2)cc1	1.5
CCCCc1nnc(SCC2CCCCC2)n1Cc1ccc(NC(=O)c2ccccc2-c2nnn[nH]2)cc1	36
CCCCc1nnc(OCCc2ccccc2)n1Cc1ccc(NC(=O)c2ccccc2-c2nnn[nH]2)cc1	63
CCCCc1nnc(SCCc2ccccc2)n1Cc1ccc(NC(=O)c2ccccc2-c2nnn[nH]2)cc1	35
